In general, IC50 refers to the concentration needed to halve the response being measured.

In this assay the target is T1, human acetyl-CoA carboxylase 2 (ACC2) (Homo sapiens, UniProt O00763).
T1 construct: The cDNA encoding amino acids 144 to 2458 of human acetyl-CoA carboxylase 2; made in house; host or cells: Sf9 insect cells (baculovirus, pFastBac1)
T1 sequence (O00763 144-2458): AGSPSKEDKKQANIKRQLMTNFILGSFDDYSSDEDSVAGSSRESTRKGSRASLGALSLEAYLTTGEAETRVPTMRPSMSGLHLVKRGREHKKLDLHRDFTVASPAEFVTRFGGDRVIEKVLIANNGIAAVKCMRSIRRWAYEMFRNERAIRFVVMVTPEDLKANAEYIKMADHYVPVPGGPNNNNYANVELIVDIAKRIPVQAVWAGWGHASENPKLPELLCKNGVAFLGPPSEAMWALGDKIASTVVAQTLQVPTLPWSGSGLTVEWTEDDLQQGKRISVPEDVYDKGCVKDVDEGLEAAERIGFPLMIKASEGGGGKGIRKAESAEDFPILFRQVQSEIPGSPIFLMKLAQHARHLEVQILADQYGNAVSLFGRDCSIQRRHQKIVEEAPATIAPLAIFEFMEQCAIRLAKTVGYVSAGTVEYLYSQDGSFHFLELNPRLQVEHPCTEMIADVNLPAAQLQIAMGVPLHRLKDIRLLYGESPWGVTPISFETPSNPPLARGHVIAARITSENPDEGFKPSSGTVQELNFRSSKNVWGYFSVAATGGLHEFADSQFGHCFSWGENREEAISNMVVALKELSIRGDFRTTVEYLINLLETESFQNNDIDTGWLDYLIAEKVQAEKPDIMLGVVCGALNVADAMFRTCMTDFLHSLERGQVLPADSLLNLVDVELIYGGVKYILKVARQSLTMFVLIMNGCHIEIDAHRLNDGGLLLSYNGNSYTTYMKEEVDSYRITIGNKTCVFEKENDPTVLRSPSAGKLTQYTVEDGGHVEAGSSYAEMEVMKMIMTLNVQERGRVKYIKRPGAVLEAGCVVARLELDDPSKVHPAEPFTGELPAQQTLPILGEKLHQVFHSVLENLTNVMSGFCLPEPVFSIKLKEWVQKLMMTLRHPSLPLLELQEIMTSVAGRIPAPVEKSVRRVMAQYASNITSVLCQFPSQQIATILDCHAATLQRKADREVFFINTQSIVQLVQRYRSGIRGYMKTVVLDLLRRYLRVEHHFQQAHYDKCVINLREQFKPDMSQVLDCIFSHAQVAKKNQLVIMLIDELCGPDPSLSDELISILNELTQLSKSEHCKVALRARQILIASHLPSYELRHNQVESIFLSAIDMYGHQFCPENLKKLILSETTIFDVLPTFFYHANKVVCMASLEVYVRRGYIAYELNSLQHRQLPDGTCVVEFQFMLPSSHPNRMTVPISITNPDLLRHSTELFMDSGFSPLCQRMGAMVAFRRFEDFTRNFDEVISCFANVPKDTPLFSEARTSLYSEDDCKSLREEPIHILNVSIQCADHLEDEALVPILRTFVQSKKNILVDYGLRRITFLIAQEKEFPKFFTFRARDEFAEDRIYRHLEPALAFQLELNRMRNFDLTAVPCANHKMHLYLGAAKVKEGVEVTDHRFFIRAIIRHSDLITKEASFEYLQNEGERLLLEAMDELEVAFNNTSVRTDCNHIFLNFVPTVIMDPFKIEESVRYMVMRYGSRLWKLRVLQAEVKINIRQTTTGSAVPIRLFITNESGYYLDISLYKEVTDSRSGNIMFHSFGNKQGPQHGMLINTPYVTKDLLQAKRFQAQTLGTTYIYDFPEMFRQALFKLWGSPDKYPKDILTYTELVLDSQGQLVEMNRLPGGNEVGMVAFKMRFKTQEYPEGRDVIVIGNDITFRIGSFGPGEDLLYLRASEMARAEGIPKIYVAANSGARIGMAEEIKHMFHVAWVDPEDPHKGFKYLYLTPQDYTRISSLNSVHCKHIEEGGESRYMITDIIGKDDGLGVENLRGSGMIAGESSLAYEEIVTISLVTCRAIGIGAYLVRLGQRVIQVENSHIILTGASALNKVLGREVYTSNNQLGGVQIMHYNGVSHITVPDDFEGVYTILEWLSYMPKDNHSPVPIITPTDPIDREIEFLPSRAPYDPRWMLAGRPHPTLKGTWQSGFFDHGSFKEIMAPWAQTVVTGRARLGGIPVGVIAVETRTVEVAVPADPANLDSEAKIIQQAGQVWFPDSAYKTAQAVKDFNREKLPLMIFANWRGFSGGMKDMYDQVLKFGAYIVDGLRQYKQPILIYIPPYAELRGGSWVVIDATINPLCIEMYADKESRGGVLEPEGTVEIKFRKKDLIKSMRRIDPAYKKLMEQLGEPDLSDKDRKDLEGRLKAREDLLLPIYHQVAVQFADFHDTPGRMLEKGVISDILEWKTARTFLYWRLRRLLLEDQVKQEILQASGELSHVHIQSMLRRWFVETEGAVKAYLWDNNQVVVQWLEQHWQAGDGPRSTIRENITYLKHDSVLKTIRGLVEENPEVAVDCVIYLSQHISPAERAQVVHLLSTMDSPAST
The experiment in a line: Acetyl-CoA carboxylase enzyme assay (malonyl-CoA formation by LC/MS/MS). Type of assay: biochemical. The following applies: recombinant human ACC2 (aa 144-2458); read-out: IC50 ACC2. In a few lines:
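Malonyl-CoA formation was read by LC/MS/MS MRM against a [13C3]-malonyl-CoA internal standard, after acetic acid quench. The enzyme was baculovirus/Sf9-expressed human ACC2 residues 144–2458, given 15 minutes room-temperature compound preincubation in HEPES pH 7.5 buffer with MgCl2, citrate and DTT. Substrate solution held 50 μM acetyl-CoA, 120 μM ATP and 2 mM KHCO3.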
Take `CC(C)(C)c1nnc([C@H]2CC[C@H](NS(=O)(=O)c3ccc4[nH]c(-c5ccc(F)cc5)nc4c3)CC2)o1` [Example 607, N-((1r,4r)-4-(5-tert-butyl-1,3,4-oxadiazol-2-yl)cyclohexyl)-2-(4-fluorophenyl)-1H-benzo[d]imidazole-5-sulfonamide]: the IC50 worked out at 1090 nM.
To `O=C([C@H]1CC[C@H](NS(=O)(=O)c2cnc3ccccc3c2)CC1)N1CCCC1c1ccccc1` (stereo partly drawn) [Example 43, N-((1r,4r)-4-(2-phenylpyrrolidine-1-carbonyl)cyclohexyl)quinoline-3-sulfonamide] belongs 412 nM; to `COc1ccc(-c2nc3ccc(S(=O)(=O)N[C@H]4CC[C@H](C(=O)OCc5ccccc5)CC4)cc3[nH]2)cc1` [Example 100, (1r,4r)-benzyl 4-(2-(4-methoxyphenyl)-1H-benzo[d]imidazole-6-sulfonamido)cyclohexanecarboxylate], 760 nM.
Under `O=C([C@H]1CC[C@H](NS(=O)(=O)c2ccc3oc4ccccc4c3c2)CC1)N1CCNC[C@@H]1c1ccccc1` [Example 256, N-((1S,4r)-4-((S)-2-phenylpiperazine-1-carbonyl)cyclohexyl)dibenzo[b,d]furan-2-sulfonamide] stands 20 nM; under `COCCNc1ccc2cc(S(=O)(=O)N[C@H]3CC[C@H](C(=O)N[C@H](C)c4ccc(F)cc4)CC3)ccc2n1` [Example 201, (1r,4R)-N-((R)-1-(4-fluorophenyl)ethyl)-4-(2-(2-methoxyethylamino)quinoline-6-sulfonamido)cyclohexanecarboxamide], 80 nM.
Under `CC(C)COC(=O)N1CCC(C)(C)c2ccc(S(=O)(=O)N[C@H]3CC[C@H](C(=O)N[C@H](C)c4ccc(F)cc4)CC3)cc21` [Example 212, isobutyl 7-(N-((1R,4r)-4-((R)-1-(4-fluorophenyl)ethylcarbamoyl)cyclohexyl)sulfamoyl)-4,4-dimethyl-3,4-dihydroquinoline-1(2H)-carboxylate] stands 165 nM.
As for `CC(=O)Nc1ccc(-c2nc3ccc(S(=O)(=O)Nc4ccc(C(=O)OC(C)C)cc4)cc3[nH]2)cc1` [Example 498, isopropyl 4-(2-(4-acetamidophenyl)-1H-benzo[d]imidazole-6-sulfonamido)benzoate], the IC50 was determined as 495 nM.
For the compound `C[C@H]1C[C@H](C)CN(C(=O)[C@H]2CC[C@H](NS(=O)(=O)c3ccc4[nH]c(-c5ccccc5)nc4c3)CC2)C1` [Example 665, N-((1S,4r)-4-((3S,5S)-3,5-dimethylpiperidine-1-carbonyl)cyclohexyl)-2-phenyl-1H-benzo[d]imidazole-5-sulfonamide], the IC50 stood at 40 nM.
Consider `C[C@@H]1C[C@H](C)CN(C(=O)[C@H]2CC[C@H](NS(=O)(=O)c3ccc4[nH]c(-c5ccccc5)nc4c3)CC2)C1` [Example 666, N-((1R,4r)-4-((3S,5R)-3,5-dimethylpiperidine-1-carbonyl)cyclohexyl)-2-phenyl-1H-benzo[d]imidazole-5-sulfonamide], for which the IC50 is 30 nM.
To `Cc1nc2ccc(S(=O)(=O)N[C@H]3CC[C@H](C(=O)N4CCOCC4)CC3)cc2s1` [Example 658, 2-methyl-N-((1r,4r)-4-(morpholine-4-carbonyl)cyclohexyl)benzo[d]thiazole-6-sulfonamide] belongs 71700 nM; to `COC(=O)C(C)(C)[C@@H](NC(=O)[C@H]1CC[C@H](NS(=O)(=O)c2ccc3cc(-c4ccccc4)n(C)c3c2)CC1)c1ccccc1` [Example 407, (S)-methyl 2,2-dimethyl-3-((1r,4S)-4-(1-methyl-2-phenyl-1H-indole-6-sulfonamido)cyclohexanecarboxamido)-3-phenylpropanoate], below 10 nM.
Regarding `Cn1c(C2CC2)c(C#N)c2ccc(S(=O)(=O)N[C@H]3CC[C@H](C(=O)N4CCC[C@@H]4C(F)(F)F)CC3)cc21` [Example 389, 3-cyano-2-cyclopropyl-1-methyl-N-((1R,4r)-4-((R)-2-(trifluoromethyl)pyrrolidine-1-carbonyl)cyclohexyl)-1H-indole-6-sulfonamide], the IC50 stood at 15 nM.

Values taken from patent US8697739B2, “Bicyclic acetyl-CoA carboxylase inhibitors and uses thereof” (Novartis AG, priority 2010, dated 2014).
